Values of other authors in patent publication US4335127A, “Piperidinylalkyl quinazoline compounds, composition and method of use” (Janssen Pharmaceutica, N.V., priority 1979, dated 1982).

Tests used:
[1] = tested on: cyanosis of ears and extremities induced by compound 48/80 in rats; conditions: rats treated with compound 48/80; cited from earlier work
[2] = tested on: lesions in the glandular area of the stomach and distension of the stomach induced by compound 48/80 in rats; conditions: rats treated with compound 48/80; cited from earlier work
Note: test concentration or dose not given here.

NC(=O)C1(N2CCCCC2)CCN(CCCC(=O)c2ccc(F)cc2)CC1 [pipamperone]
prevent completely: prevention of the cyanosis of ears and extremities (known serotonin antagonists) [1] | prevention of the abnormal gastric distension (known serotonin antagonists) [2] | prevention of the lesions in the glandular area of the stomach (known serotonin antagonists) [2]

CN1CCN2c3ccccc3Cc3ccccc3C2C1 (stereo not drawn) [mianserin]
prevent completely: prevention of the cyanosis of ears and extremities (known serotonin antagonists) [1] | prevention of the abnormal gastric distension (known serotonin antagonists) [2] | prevention of the lesions in the glandular area of the stomach (known serotonin antagonists) [2]

CN1CCC(=C2c3ccccc3CCc3sccc32)CC1 [pizotifen]
prevent completely: prevention of the cyanosis of ears and extremities (known serotonin antagonists) [1] | prevention of the abnormal gastric distension (known serotonin antagonists) [2] | prevention of the lesions in the glandular area of the stomach (known serotonin antagonists) [2]

O=C(CCCN1CCC2(CC1)C(=O)NCN2c1ccccc1)c1ccc(F)cc1 [spiperone]
prevent completely: prevention of the cyanosis of ears and extremities (known serotonin antagonists) [1] | prevention of the abnormal gastric distension (known serotonin antagonists) [2] | prevention of the lesions in the glandular area of the stomach (known serotonin antagonists) [2]

CC[C@@H](CO)NC(=O)[C@@H]1C=C2c3cccc4c3c(cn4C)C[C@H]2N(C)C1 [methysergide]
prevent completely: prevention of the cyanosis of ears and extremities (known serotonin antagonists) [1] | prevention of the abnormal gastric distension (known serotonin antagonists) [2] | prevention of the lesions in the glandular area of the stomach (known serotonin antagonists) [2]

CN1C[C@H](CNC(=O)OCc2ccccc2)C[C@@H]2c3cccc4c3c(cn4C)C[C@H]21 [metergoline]
prevent completely: prevention of the cyanosis of ears and extremities (known serotonin antagonists) [1] | prevention of the abnormal gastric distension (known serotonin antagonists) [2] | prevention of the lesions in the glandular area of the stomach (known serotonin antagonists) [2]

CN(C)CCCSc1ccccc1NC(=O)/C=C/c1ccccc1 [cinanserin]
prevent completely: prevention of the cyanosis of ears and extremities (known serotonin antagonists) [1] | prevention of the abnormal gastric distension (known serotonin antagonists) [2] | prevention of the lesions in the glandular area of the stomach (known serotonin antagonists) [2]

CN1CCC(=C2c3ccccc3C=Cc3ccccc32)CC1 [cyproheptadine]
prevent completely: prevention of the cyanosis of ears and extremities (known serotonin antagonists) [1] | prevention of the abnormal gastric distension (known serotonin antagonists) [2] | prevention of the lesions in the glandular area of the stomach (known serotonin antagonists) [2]
